Test results as given in patent publication US20110312961A1, “2,5-Disubstituted Morpholine Orexin REceptor Antagonists” (priority 2008, published 2011).

Tests used:
[1] = Aqueous solubility of salts (salt screen); format: physicochemical; details: target 10 mg/ml at 25° C., unbuffered
db/db mouse = assay: Murine model of type 2 diabetes mellitus (db/db); format: in vivo; details: MLA 3 mg/kg daily via gavage with Compound A 1.0 mg/kg, obese mice
Description: The db/db mouse, a well established model of type 2 diabetes mellitus, is a leptin-deficient mutant that expresses an obese phenotype and also commonly expresses metabolic symptoms including hyperglycemia, hyperlipidemia and hyperinsulinemia (Halaas et al., 1995 and Lee et al., 1996). This experimental animal model of diabetes was employed in a study designed to determine the effects of (2S,3R)—N-2-((3-pyridinyl)methyl)-1-azabicyclo[2.2.2]oct-3-yl)-3,5-difluorobenzamide on body mass and several additional metabolic parameters.
In this study, (2S,3R)—N-2-((3-pyridinyl)methyl)-1-azabicyclo[2.2.2]oct-3-yl)-3,5-difluorobenzamide was repeatedly administered orally (via gavage) at 1.0 mg/kg once daily starting from the age of approximately 3 weeks and continuing throughout the 7-week study. Nondiabetic heterozygote littermate mice (db/+; designated “Db”) were used as controls. Body weight and food intake were determined twice weekly. The α7 antagonist methyllycaconitine (MLA) was also given concurrently via gavage at 3 mg/kg daily to selected cohorts of db/db (designated “db”) or db/+mice. At the end of the 7-week dosing regimen, total growth rates (overall body weight gain) and average daily food intake were calculated. In addition, glucose levels were assessed in mice fasted overnight. Furthermore, blood sample analytes from mice fasted overnight were collected for measurements of tumor necrosis factor-a (TNF-α), triglycerides and glycosylated hemoglobin (HbA1c). All data are expressed as mean±SEM. For each parameter investigated, differences among all groups were compared by one-way ANOVA with post-hoc Neuman-Keuls multiple comparison test.

CD-1 mice = assay: Formalin test; format: in vivo, mouse; details: 5 mg/kg s.c., positive control
Method: One of the most clinically predictive screening models of acute pain is the formalin test in mice (LeBars et al., 2001). In this paradigm, originally described by Dubuisson and Dennis (1977), a diluted solution of formalin is injected into the plantar surface of a subject's (rat or mouse) rear paw and nociceptive behavior is measured; for instance, licking and biting of the injected paw. Two phases of the response are observed. First an early phase, starting immediately after injection and lasting 5-10 minutes, followed by a late phase that can last from 15-60 minutes after injection. Nociceptive response is attributed to direct chemical stimulation in the early phase and inflammation/persistent pain in the later phase (Dubuisson and Dennis, 1977). The response in the late phase also depends on changes in processing of information in the spinal cord due to the afferent barrage during the early phase (Coderre et al., 1990). An advantage of the test is that two different types of stimuli are employed in the same assay to study the possibility of varying analgesic effects of a drug in the two phases of the test (Tjølsen and Hole, 1997).
Subjects (adult male CD-1 mice (Charles River, Raleigh, N.C.) weighing approximately 20-25 grams) were removed from their home cage and weighed, then placed in a clear Plexiglas™ observation box for an acclimation period of 20-30 minutes. Mice were then removed from the observation chambers and (2S,3R)—N-2-((3-pyridinyl)methyl)-1-azabicyclo[2.2.2]oct-3-yl)-3,5-difluorobenzamide (as the hydrochloride salt in 0.9% saline) (1, 3 or 10 mg/kg s.c. (calculated with respect to the free base)), morphine (5 mg/kg; s.c.) or 0.9% saline vehicle was administered subcutaneously in a volume of 1 mL/kg. Mice were then returned to the chamber for the predetermined pretreatment time of 30 minutes for (2S,3R)—N-2-((3-pyridinyl)methyl)-1-azabicyclo[2.2.2]oct-3-yl)-3,5-difluorobenzamide and morphine.
After the test compound pretreatment time, the animals were injected with formalin solution (2.5% derived as a 1:4 dilution of 10% phosphate buffered formalin solution (Sigma):distilled water). The subject's assigned paw was gasped gently and formalin solution was injected into the paw intra-dermally in the middle on the dorsal side. Once injected, the subject was immediately returned to its observation chamber and a timer was started to mark the beginning of Phase I. Each subject was videotaped for the entire 40-minute session. […] The time spent licking during that 1 min interval was recorded, and the presence or absence of paw favoring was noted.
For data analyses, phase I of the test was defined as 0 to 5 minutes after formalin injection, and phase II was defined as 20 to 40 minutes after formalin injection. The time spent licking during the 1 minute intervals during those time frames was recorded and graphed as mean±S.E.M. For comparisons across treatment groups, 1-way analyses of variance (ANOVAs) were performed for each phase of the session with treatment as the […] variable. Post-hoc analyses were performed when appropriate to determine specific group differences.

Sprague-Dawley rats = assay: Complete Freund's adjuvant (CFA)-induced thermal hyperalgesia; format: in vivo, rat; details: 3 mg/kg s.c., 1 hour after dosing, reference standard
Method: Injection of complete Freund's adjuvant (CFA) in rats is commonly used to evaluate compounds with potential for use as drugs in treatment of mono-arthritis (osteo-arthritis) and other inflammatory conditions. Signs of hyperalgesia develop within 24 h (Schaible and Grubb, 1993).
(2S,3R)—N-2-((3-pyridinyl)methyl)-1-azabicyclo[2.2.2]oct-3-yl)-3,5-difluorobenzamide was evaluated for possible analgesia effect in the CFA-induced thermal hyperalgesia test in rats using methods similar to those described by Walker and colleagues (2003). Briefly, adult male Sprague-Dawley rats (BioLasco, Taiwan) weighing 180±20 g on receipt were randomly assigned to treatment groups of n=8 per group. Animals each received a sub plantar injection (0.1 mL) of CFA (DIFCO, 264010; 0.1% solution) to the right hind paw at 24 h prior to experimental testing. Thermal hyperalgesia was tested using a Paw/Tail stimulator analgesia meter (IITC Model-336G, IITC, USA) with a thermally regulated glass floor set at 30° C. […] The time required for the animal to withdraw the paw from the thermal stimulus was automatically recorded. […]
Twenty-four hours after CFA injection, subjects were pre-selected (for clear presence of thermal hyperalgesia) for experimentation only if the latency to withdrawal was less than 75% of the baseline. […] The post-treatment level of thermal hyperalgesia was then measured at 60 minutes post-treatment. […]

[2] = test system: ovalbumin-sensitized mice; assay: Airway hyperresponsiveness (Penh) and BALF cell counts; format: in vivo, mouse
Method: Using the method of Hamelmann et al, (2S,3R)—N-2-((3-pyridinyl)methyl)-1-azabicyclo[2.2.2]oct-3-yl)-3,5-difluorobenzamide was evaluated for possible inhibition of airway hyper-responsiveness in mice. Briefly, ovalbumin (OVA)-sensitized animals, 12 animals per group, were challenged by nasal inhalation with aerosolized 5% OVA for 25 min on days 21, 23, and 25. The mice were treated with vehicle or (2S,3R)—N-2-((3-pyridinyl)methyl)-1-azabicyclo[2.2.2]oct-3-yl)-3,5-difluorobenzamide subcutaneously (s.c.) twice daily from day 21 to day 26 or once daily intratracheally (i.t.), preceding ovalbumin aerosol challenge by 30 min on days 21, 23 and 25 as well as methacholine challenge or bronchoalveolar lavage fluids (BALF) harvest on day 26. Dexamethasone, the reference standard, was administered at 3 mg/kg orally (p.o.) once daily 60 min before OVA challenge on day 21, 23 and 25 and 60 min before methacholine provocation or BALF harvest on day 26. Noninvasive measurements of airway responsiveness were performed by using whole body plethysmography, in which increases in enhanced pause (Penh) serve as an index of airway obstruction. Responses to inhaled methacholine were measured and calculated as percentage of respective baseline values. Unpaired Students t-test was used for comparison between the vehicle control and the sham group; one-way ANOVA and Dunnett's post-hoc analyses were applied for comparison between the vehicle control and treated groups. Statistical significance is considered at P<0.05.

[3] = test system: STZ rat model of diabetic neuropathy; assay: Streptozotocin (STZ)-induced diabetic neuropathy, Von Frey allodynia; format: in vivo; details: 150 mg/kg i.p., 2 hours before testing, all treatment days, vs pretreatment and vehicle, p<0.01
Description: Peripheral neuropathy, a major complication of diabetes, often results in spontaneous pain or the perception of pain from contact with a normally non-noxious stimulus. Such neuropathic pain is experienced by 20-24% of diabetic patients, or approximately 30 million people worldwide (Schmader, 2002). The streptozotocin (STZ)-induced diabetes model in rats provides a means to evaluate the efficacy of test compounds that offer therapeutic potential for peripheral neuropathy and to understand their putative mechanism of action. In this model, a single injection of STZ, an antibiotic that mimics clinical diabetes by causing irreversible damage to the pancreatic β and α-cells leads to chronic hyperglycemia, nerve dysfunction and pain sensitivity. The current study utilizes the STZ rat model of diabetic neuropathy to investigate the effects of (2S,3R)—N-2-((3-pyridinyl)methyl)-1-azabicyclo[2.2.2]oct-3-yl)-3,5-difluorobenzamide on mechanical allodynia, an assessment of pain.
Diabetes was induced by a 0.5 ml injection of streptozotocin (60 mg/kg) dissolved in citrate buffer (pH) into the tail vein of each rat The development of diabetes was confirmed by measuring the blood glucose levels (BGL) of all animals on study day 3 (BGL>300 mg/dL). […] These animals were tested again for their BGL at study day 23.
(2S,3R)—N-2-((3-pyridinyl)methyl)-1-azabicyclo[2.2.2]oct-3-yl)-3,5-difluorobenzamide (0.1, 1 or 10 mg/kg p.o.) was administered as a solution of the hydrochloride salt in water once daily starting on study day 14 or study day 16 and continuing through study day 21 or 23, respectively. The control article gabapentin (in 0.9% saline, 150 mg/kg i.p.) was only administered on allodynia test days. Test item, vehicle or control article administration was based on evaluation of allodynia on study day 14. If allodynia was not present on study day 14, the animal was evaluated again at study day 16. Pain response was measured either on study days 14 and 21 or 16 and 23, 30 minutes after Test Item administration.
For the allodynia assessments, Von Frey filaments were used according to the methods of Chaplan and colleagues (1994). Briefly, the rats were placed in an enclosure and positioned on a metal mesh surface, but allowed to move freely. The rats' cabins were covered with red cellophane to diminish environmental distributions. The test began after cessation of exploratory behavior.
When the tip of a Von Frey fiber of given length and diameter was pressed against the skin at right angles, the force of application increases as long as the researcher continued to advance the probe until the fiber bent. After the fiber bent, the probe was advanced, causing the fiber to bend more, but without additional force being applied. The animal would indicate sensation by pulling back its paw. In the absence of a paw withdrawal response to the initially selected filament, a stronger stimulus was presented; in the event of paw withdrawal, the next weaker stimulus was chosen. In this fashion, the resulting pattern of positive and negative responses was used to determine the paw withdrawal threshold.
The set of Von Frey monofilaments provide an approximate logarithmic scale of actual force and a linear scale of perceived intensity. Below is a table showing the force (g) and its corresponding size of monofilaments.
All normally distributed data are presented as means±SEM, as well as the animals' individual values followed by a student T-test (Software: Microsoft® Excel). A p value <0.05 is considered to represent a significant difference. Due to the non-normal distribution of the allodynia data, descriptions of those data are provided as both mean (±SEM) and median values in order to represent their imprecise nature and skewed distribution.

## Cl.O=C(N[C@@H]1C2CCN(CC2)[C@H]1Cc1cccnc1)c1cc(F)cc(F)c1 [Hydrochloride mono salts]
[1]
  Aqueous Solubility: >10000 µg/mL

## CCN1C[C@]2(COC(=O)c3ccccc3N3C(=O)C[C@H](C)C3=O)CC[C@H](OC)[C@@]34[C@@H]5C[C@H]6[C@H](OC)[C@@H]5[C@](O)(C[C@@H]6OC)[C@@](O)([C@@H](OC)[C@H]23)[C@@H]14 [MLA, methyllycaconitine, reference compound]
db/db mouse
  effect of MLA co-administration on the inhibition of fasting plasma glucose: not reversed
  effect of MLA co-administration on the reduced food consumption: failed to show the reduced daily average food consumption
  effect of MLA co-administration on the reduced weight gain: failed to show the reduced weight gain
  effect of MLA co-administration on the reduction in glycosylated HbA1c: attenuated
  effect of MLA co-administration on the reduction in triglycerides: not attenuated
  effect of MLA co-administration on the reduction of TNF alpha: inhibited

## CN1CC[C@]23c4c5ccc(O)c4O[C@H]2[C@@H](O)C=C[C@H]3[C@H]1C5 [morphine, reference compound]
CD-1 mice
  efficacy, phase I: efficacious
  efficacy, phase II: efficacious
Sprague-Dawley rats
  analgesic effect on CFA-induced thermal hyperalgesia: significant analgesic activity

## O=C(N[C@@H]1C2CCN(CC2)[C@H]1Cc1cccnc1)c1cc(F)cc(F)c1.O=C(N[C@@H]1C2CCN(CC2)[C@H]1Cc1cccnc1)c1cc(F)cc(F)c1.O=C(O)c1ccc(O)cc1 [4-Hydroxybenzoate mono salt]
[1]
  Aqueous Solubility: >10000 µg/mL

## O=C(N[C@@H]1C2CCN(CC2)[C@H]1Cc1cccnc1)c1cc(F)cc(F)c1.O=C(O)/C=C/C(=O)O [Fumarate mono salt]
[1]
  Aqueous Solubility: >10000 µg/mL

## O=C(N[C@@H]1C2CCN(CC2)[C@H]1Cc1cccnc1)c1cc(F)cc(F)c1.O=P(O)(O)O [Phosphate mono salts]
[1]
  Aqueous Solubility: >10000 µg/mL

## C[C@@H]1C[C@H]2[C@@H]3CCC4=CC(=O)C=C[C@]4(C)[C@@]3(F)[C@@H](O)C[C@]2(C)[C@@]1(O)C(=O)CO [Dexamethasone, reference compound]
[2]; 3 mg/kg PO once daily, reference standard
  methacholine (10 and 30 mg/mL)-induced increase in Penh values: significant inhibition
[2]; 3 mg/kg p.o. once daily
  increase in total WBC, neutrophils, lymphocytes, monocytes and eosinophils in BALF: inhibited significantly

## NCC1(CC(=O)O)CCCCC1 [gabapentin, reference compound]
[3]
  tactile allodynia: reversed the tactile allodynia significantly
